Literature values in patent publication US9265822B2 (priority 2009, dated 2016).

Test system: American isolates of H3N2

| Structure (SMILES) | measured resistance |
| --- | --- |
| NC12CC3CC(CC(C3)C1)C2 [amantadine] | 91% |
| CC(N)C12CC3CC(CC(C3)C1)C2 (centres unmarked) [rimantadine] | 91% |
